Test results published in paper PMC11110727, “Exploiting thiol-functionalized benzosiloxaboroles for achieving diverse substitution patterns – synthesis, characterization and biological evaluation of promising antibacterial agents” (RSC Medicinal Chemistry, 2024).
≈ marks a conversion by molar mass, not a printed value.

Tests used:
C. albicans ATCC 90028 = assay: Antifungal activity: MIC/MFC, disc-diffusion; type: cell-based, Candida albicans; details: for MIC: Candida albicans, ATCC90028, read-out: MIC
Procedure: (§1) Direct antimicrobial activity was determined against the following standard strains: (1) Gram-positive cocci: methicillin-sensitive Staphylococcus aureus ATCC 6538P (MSSA), methicillin-resistant S. aureus subsp. aureus ATCC 43300 (MRSA), S. epidermidis ATCC 12228, Enterococcus faecium ATCC 6057, E. faecalis ATCC 29212, Bacillus subtilis ATCC 6633; (2) Gram-negative bacteria from Enterobacteriales order: Klebsiella pneumoniae ATCC 13883, Escherichia coli ATCC 25922, Enterobacter cloacae DSM 6234, Proteus mirabilis ATCC 12453, Serratia marcescens ATCC 13880; (3) Gram-negative non-fermentative rods: Acinetobacter baumannii ATCC 19606, Pseudomonas aeruginosa ATCC 27853, Stenotrophomonas maltophilia ATCC 12714, S. maltophilia ATCC 13637, Burkholderia cepacia ATCC 25416, Bordetella bronchiseptica ATCC 4617; (4) yeasts: Candida albicans ATCC 90028, C. krusei ATCC 6258, C. parapsilosis ATCC 22019, C. tropicalis (Castellani) Berkhout ATCC 750, C. tropicalis IBA 171, C. guilliermondii IBA 155, and Saccharomyces cerevisiae ATCC 9763. Moreover, 5 clinical strains of methicillin-resistant S. aureus were also included: NMI 664 K, NMI 1576 K, NMI 1712 K, NMI 1991 K, and NMI 2541 K. All strains were stored at −80 °C. Prior to testing, each bacterial strain was subcultured twice on tryptic soy agar TSA (bioMerieux) medium and yeast strains on Sabouraud dextrose agar (bioMerieux) for 24–48 h at 30 °C to ensure viability. The antimicrobial activity was evaluated as previously described[26] by the disc-diffusion method and the MIC determination assays according to the EUCAST (ref. [71] and [72]) and CLSI (ref. [53] and [73]) recommendations. Assessment of bactericidal (MBC) and fungicidal (MFC) activities was performed according to the CLSI recommendations.[54,74] The following reference agents were used: fluconazole (in the case of fungi), linezolid (for Gram-positive bacteria), and nitrofurantoin (for Gram-negative rods). The new benzosiloxaboroles were dissolved in DMSO (Sigma).

K. pneumoniae ATCC 13883 = assay: Antibacterial activity: MIC/MBC, MIC with PAβN, disc-diffusion; type: cell-based, Klebsiella pneumoniae; details: Klebsiella pneumoniae, ATCC13883; K. pneumoniae ATCC 13883; read-out: MIC
Procedure: as §1, with “The following reference agents were used: fluconazole (in the case of fungi), linezolid (for Gram-positive bacteria), and nitrofurantoin (for Gram-negative rods).” left out
(§2) Considering that the MDR efflux pumps often contribute to Gram-negative rod resistance, the MIC values of studied agents, with or without the pump inhibitor, PAβN (20 μg mL^−1) (Sigma), were determined.[75] The MIC was determined using Mueller–Hinton II broth medium (MHB) (Becton Dickinson) by the broth microdilution method, according to the CLSI guideliness.[53] To minimize the influence of PAβN on the destabilization of bacterial cell covers, the tests were conducted in the presence of 1 mM MgSO4 (Sigma).[76] At least a 4-fold reduction in the MIC value after the addition of PAβN was considered significant.[56,77]

E. coli ATCC 25922 = assay: as above; type: cell-based, Escherichia coli; details: E. coli ATCC 25922; for MIC: Escherichia coli, ATCC25922, read-out: MIC
Procedure: as §1, with “The following reference agents were used: fluconazole (in the case of fungi), linezolid (for Gram-positive bacteria), and nitrofurantoin (for Gram-negative rods).” left out
as §2

B. cepacia ATCC 25416 = assay: Antibacterial activity: MIC/MBC, disc-diffusion; type: cell-based, Burkholderia cepacia; details: Burkholderia cepacia, ATCC25416; B. cepacia ATCC 25416; read-out: MIC
Procedure: as §1, with “The following reference agents were used: fluconazole (in the case of fungi), linezolid (for Gram-positive bacteria), and nitrofurantoin (for Gram-negative rods).” left out
as §2

[1] = system: B. bronchiseptica ATCC 4617; assay: Antibacterial activity: MIC/MBC, disc-diffusion; type: cell-based, Bordetella bronchiseptica; details: Bordetella bronchiseptica, ATCC4617; B. bronchiseptica ATCC 4617; read-out: MIC
Procedure: as §1, with “The following reference agents were used: fluconazole (in the case of fungi), linezolid (for Gram-positive bacteria), and nitrofurantoin (for Gram-negative rods).” left out
as §2

S. cerevisiae ATCC 9763 = assay: Antifungal activity: MIC/MFC, disc-diffusion; type: cell-based, Saccharomyces cerevisiae; details: for MIC: Saccharomyces cerevisiae, ATCC9763, read-out: MIC
Procedure: as §1

C. tropicalis ATCC 750 = assay: Antifungal activity: MIC/MFC, disc-diffusion; type: cell-based; details: for MIC: Candida tropicalis, ATCC750, read-out: MIC
Procedure: as §1

[2] = system: C. parapsilosis ATCC 22019; assay: Antifungal activity: MIC/MFC, disc-diffusion; type: cell-based; details: for MIC: Lodderomyces parapsilosis, ATCC22019, read-out: MIC
Procedure: as §1

[3] = system: C. guilliermondii IBA 155; assay: Antifungal activity: MIC/MFC, disc-diffusion; type: cell-based; details: for MIC: Meyerozyma guilliermondii, IBA155, read-out: MIC
Procedure: as §1

C. tropicalis IBA 171 = assay: Antifungal activity: MIC/MFC, disc-diffusion; type: cell-based; details: for MIC: Candida tropicalis, IBA171, read-out: MIC
Procedure: as §1

S. marcescens ATCC 13880 = assay: Antibacterial activity: MIC/MBC, MIC with PAβN, disc-diffusion; type: cell-based, Serratia marcescens; details: Serratia marcescens, ATCC13880; S. marcescens ATCC 13880; read-out: MIC
Procedure: as §1, with “The following reference agents were used: fluconazole (in the case of fungi), linezolid (for Gram-positive bacteria), and nitrofurantoin (for Gram-negative rods).” left out
as §2

Compound: C[Si]1(C)OB(O)c2cc(F)c(SCCC(=O)ON3C(=O)CCC3=O)c(F)c21 [Compound 5, 2,5-Dioxopyrrolidin-1-yl 3-((5,7-difluoro-3-hydroxy-1,1-dimethyl-1,3-dihydrobenzo-[c][1,2,5]oxasilaborol-6-yl)thio)propanoate]
- MIC (C. albicans ATCC 90028): > 400 µg/mL
- MIC (K. pneumoniae ATCC 13883): > 400 µg/mL
- MIC (E. coli ATCC 25922): > 400 µg/mL
- MIC (B. cepacia ATCC 25416): > 400 µg/mL
- MIC [1]: > 400 µg/mL
- MIC (S. cerevisiae ATCC 9763): > 400 µg/mL
- MIC (C. tropicalis ATCC 750): > 400 µg/mL
- MIC [2]: > 400 µg/mL
- MIC [3]: > 400 µg/mL
- MIC (C. tropicalis IBA 171): > 400 µg/mL
- MIC (S. marcescens ATCC 13880): > 400 µg/mL

Compound: CC(=O)CCSc1c(F)cc2c(c1F)[Si](C)(C)OB2O [Compound 3, 4-((5,7-Difluoro-3-hydroxy-1,1-dimethyl-1,3-dihydrobenzo[c][1,2,5]oxasilaborol-6-yl)thio)butan-2-one]
- MIC (C. albicans ATCC 90028): > 400 µg/mL
- MIC (K. pneumoniae ATCC 13883): > 400 µg/mL
- MIC (E. coli ATCC 25922): > 400 µg/mL
- MIC (B. cepacia ATCC 25416): > 400 µg/mL
- MIC [1]: 50 µg/mL (≈ 158 µM)
- MIC (S. cerevisiae ATCC 9763): 400 µg/mL (≈ 1260 µM)
- MIC (C. tropicalis ATCC 750): > 400 µg/mL
- MIC [2]: 100 µg/mL (≈ 316 µM)
- MIC [3]: 200 µg/mL (≈ 632 µM)
- MIC (C. tropicalis IBA 171): 400 µg/mL (≈ 1260 µM)
- MIC (S. marcescens ATCC 13880): > 400 µg/mL

Compound: C[Si]1(C)OB(O)c2ccc(SC3CC(=O)N(c4ccc(F)cc4)C3=O)c(F)c21 (stereo not drawn) [Compound 15, 3-((7-Fluoro-3-hydroxy-1,1-dimethyl-1,3-dihydrobenzo[c][1,2,5]oxasilaborol-6-yl)thio)-1-(4-fluorophenyl)pyrrolidine-2,5-dione]
- diameter of inhibition zone (C. albicans ATCC 90028; C. albicans ATCC 90028, (-) = zone not observed, paper discs 9 mm): 19 mm
- MIC (C. albicans ATCC 90028): 200 µg/mL (≈ 477 µM)
- MIC (K. pneumoniae ATCC 13883): > 200 µg/mL
- MIC (E. coli ATCC 25922): > 200 µg/mL
- MIC (B. cepacia ATCC 25416): > 200 µg/mL
- MIC [1]: > 200 µg/mL
- diameter of inhibition zone (S. cerevisiae ATCC 9763; S. cerevisiae ATCC 9763, (-) = zone not observed, paper discs 9 mm): 26 mm
- MIC (S. cerevisiae ATCC 9763): 200 µg/mL (≈ 477 µM)
- diameter of inhibition zone (C. tropicalis ATCC 750; C. tropicalis ATCC 750, (-) = zone not observed, paper discs 9 mm): 14 mm
- MIC (C. tropicalis ATCC 750): > 200 µg/mL
- diameter of inhibition zone ([2]; C. parapsilosis ATCC 22019, (-) = zone not observed, paper discs 9 mm): 23 mm
- MIC [2]: 200 µg/mL (≈ 477 µM)
- diameter of inhibition zone ([3]; C. guilliermondii IBA 155, (-) = zone not observed, paper discs 9 mm): 28 mm
- MIC [3]: 200 µg/mL (≈ 477 µM)
- diameter of inhibition zone (C. tropicalis IBA 171; C. tropicalis IBA 171, (-) = zone not observed, paper discs 9 mm): 15 mm
- MIC (C. tropicalis IBA 171): > 200 µg/mL
- MIC (S. marcescens ATCC 13880): > 200 µg/mL

Compound: C[Si]1(C)OB(O)c2cc(F)c(S(=O)(=O)N3CCOCC3)c(F)c21 [Compound 29, 5,7-Difluoro-1,1-dimethyl-6-(morpholinosulfonyl)benzo[c][1,2,5]oxasilaborol-3(1H)-ol]
- MIC (K. pneumoniae ATCC 13883): > 400 µg/mL
- -fold reduction of MIC in the presence of PAβN (E. coli ATCC 25922; PAβN 20 μg mL^−1, MHB + 1 mM MgSO4): 2 -fold
- MIC (E. coli ATCC 25922): > 400 µg/mL
- MIC (B. cepacia ATCC 25416): > 400 µg/mL
- MIC [1]: > 400 µg/mL
- MIC (S. marcescens ATCC 13880): > 400 µg/mL
